These results are taken from patent US6200966A, “Compositions for inhibiting airway wall inflammation” (Amrad Operations Pty. Ltd., priority 1996, dated 2001).

In test [1] the test system is endothelial cells and fibroblasts. To be noted: actively proliferating or non-quiescent; cited from earlier work.
In test [2] the test system is human cultured airway smooth muscle cells. Briefly: Protein synthesis: [3H]-leucine incorporation. It is filed as cell-based. To be noted: for 5HT-stimulated increase in protein synthesis: 5HT 10 nM, 0.3-10 μM. As for the experimental part:
Human bronchial airway smooth muscle was obtained from macroscopically normal lung resection specimens from lung transplant donors or recipients provided by the Alfred Hospital (Melbourne). Cultures were prepared as previously described in detail (Tomlinson et al., 1994). Briefly, the tissue was partially digested in Dulbecco's Modified Eagle's Medium (DMEM), [supplemented with 2 mM L-glutamine, 100 μg/ml streptomycin, 100 U/ml penicillin-G, 2 μg/ml amphotericin B, and 0.25% w/v bovine serum albumin (BSA)] containing 3 mg/ml collagenase for 30 minutes at 37° C. and approximately 0.5 g smooth muscle was further digested by a 2 hour incubation in 0.5 mg/ml elastase, followed by an 18 hour incubation in collagenase (3 mg/ml) at 37° C. Cell suspensions ere centrifuged (10 min, 100×g, 25° C.), washed three times in supplemented DMEM, resuspended in 25 ml DMEM containing 10% (v/v) heat-inactivated foetal calf serum (FCS), seeded into 25 cm^2 Falcon culture flasks and incubated (37° C., 5% CO2) for 7 to 10 days until monolayer confluence was reached. Cells were then harvested weekly by 10 min exposure to 0.5% trypsin, 1 mM EDTA and passaged at a 1:3 split ratio into 75 cm^2 Falcon culture flaskes. Cells at passage numbers 3 to 15 were used for experiments.
Cells were subcultured into 24-well plates at a 1:3 ratio and allowed to grow to monolayer confluency over a 72-96 hour period in an atmosphere of 5% CO2 in air at 37° C. The serum-containing medium was replaced with serum-free DMEM for a 24 hour period to produce growth arrest. In some experiments, the cells were pretreated with 2-methoxyestradiol 30 min before the addition of mitogen. The stimulant (mitogen) was added to the appropriate wells together with a supplement containing insulin, transferrin, and selenium (Monomed A, 1% v/v). Monomed A was added to provide progression factors which are essential for the mitogenic activity of growth factors such as thrombin, epidermal growth factor (EGF) and basic fibroblast growth factor (bFGF) (Stewart et al., 1995a). Mitogens and inhibitors were left in contact with cells from the time of addition until the end of the experiment, unless indicated otherwise. Cells were incubated for 24 hours (37° C., 5% CO2) before being pulsed with [^3 H]-thymidine (1 μCi/ml for four hours) to measure incorporation of radiolabel into newly synthesized DNA, according to out previous study (Stewart et al., 1995). Incorporation of radioactivity was determined by filtration at the end of the pulse-labelling period. The medium containing the radioactivity was aspirated and the cells were lysed by addition of 200 μl of 0.1M NaOH. The DNA was immobilised by filtration in a binding harvester (Packard Filtermate 196) on glass fibre filters (Packard, standard), which were then washed with 3×3 ml volumes of distilled water and a single 1 ml volume of 100% ethanol. The dried filters were counted in a Packard Topcount liquid scintillation counter. Protein synthesis rates were determined in experiments of analogous design to those described above, but [^3 H]-leucine replaced [^3 H]-thymidine in the pulsing incubation of 4 hours. Furthermore, in experiments to determine the effects of mitogens and 2-methoxyestradiol on the rate of protein synthesis, incubations with mitogen were carried out for a period of 48 hours. The longer duration of these experiments was required to allow sufficient time for cell division to occur.
Each treatment in an individual experiment was carried out in quadruplicate for DNA and protein synthesis experiments. Each experiment was performed in at least three different cultures obtained from three different individuals. For cell counting, single incubations were carried out in three cultures. Results are presented as grouped data from multiple cultures and are expressed as mean ±S. E. of n cultures. The degree of increment was calculated by dividing the response of treated wells by that of the control wells on the same 24-well plate.

Another test deals with horseradish peroxidase. Briefly: Oxidation of tetramethyl benzidine by purified horseradish peroxidase. It is filed as biochemical. The settings on record: 10 μM.
For another test, the system named is tubulin. To be noted: literature; cited from earlier work.
Another test relates to vascular smooth muscle. The settings on record: Goyache et al., 1995; cited from earlier work.
For a further test, the system named is tumours. To be noted: cited from earlier work.
Test [3] has as its system polymorphonuclear leukocytes (PMN). The experiment in a line: Superoxide anion generation in PMN. The format is cell-based, human. The settings on record: fMLP (100 nM) or zymosan (400 μg/ml); up to 10 μM.
For a further test, the system named is oestrogen receptors. To be noted: Merriam et al, 1980; cited from earlier work.
Another test concerns glucocorticoid receptors. The settings on record: Merriam et al, 1980; cited from earlier work.
The test system of test [4] is Human polymorphonuclear leukocytes. Briefly: Phagocytosis: radioiodination of zymosan particles (125I uptake). It is filed as cell-based. Here is the method:
Data are expressed as percentage of ^125 I incorporation into glass
fiber-filterable material. Assays were carried out using 1 ×

The subject of test [5] is pig endometrial cell cultures. The settings on record: Zhang & Davis, 1992; cited from earlier work.

Entries after “also recorded” stand apart in the source; their conditions may differ.

As to `COc1cc2c(cc1O)CC[C@@H]1[C@@H]2CC[C@]2(C)[C@@H](O)CC[C@@H]12` [2-methoxyestradiol, 1,3,5[10]-estratriene-2,3,17-triol 2-methylether], the “proliferation of endothelial cells and fibroblasts” value in test [1] is given as “inhibits proliferation”. Besides, the “5HT-stimulated increase in protein synthesis” value in test [2] is listed as “decreased”; in [2] (listed as 2-methoxyoestradiol), “inhibited”. Besides, in [2] (unstimulated, 0.3 μM), the “[3H]-leucine incorporation, compound alone, 0.3 μM” value is on record as “small stimulation”. Also, in the test with horseradish peroxidase, the “oxidation of tetramethyl benzidine by purified horseradish peroxidase” value is on record as “lack of effect; also recorded: no effect”. The “microtubule disruption / tubulin polymerisation” value with tubulin is on record as “microtubule disruption via binding at the colchicine site on tubulin”. Further, in the test with vascular smooth muscle, the “vascular smooth muscle relaxation” value is “relaxation of vascular smooth muscle”. Moreover, the growth of tumours entry in the test on tumours (Fotsis et al., 1994) is “inhibited the growth of tumurs”. Also, the tumour neovascularization result in the test with tumours (Klauber et al, 1997) was “Inhibition of tumour neovascularization”. In test [3], the “superoxide anion generation in PMN” value was “not reduced”. Moreover, the “affinity for oestrogen receptors” value in the test with oestrogen receptors is recorded as “not to have significant affinity”. The “affinity for glucocorticoid receptors” value in the test on glucocorticoid receptors is “not to have significant affinity”. For the same molecule, the 125I uptake is listed as 1.87 percentage of ^125 I incorpora in [4] (3 μM, PHS (pooled human serum), control (basal 2.13)); 3.27 percentage of ^125 I incorpora in [4] (3 μM, PHS, zymosan (basal 4.33)); 1.97 percentage of ^125 I incorpora in test [4] (3 μM, no PHS, control (basal 1.80)); 1.97 percentage of ^125 I incorpora in test [4] (3 μM, no PHS, zymosan (basal 2.83)); 1.75 percentage of ^125 I incorpora in [4] (10 μM, PHS, control (basal 2.13)); 1.65 percentage of ^125 I incorpora in test [4] (10 μM, PHS, zymosan (basal 4.33)). The 125I uptake in [4] (10 μM, no PHS, control (basal 1.80)) is listed as 2.05 percentage of ^125 I incorpora; in test [4] (10 μM, no PHS, zymosan (basal 2.83)), 1.80 percentage of ^125 I incorpora. The “radioiodination of zymosan particles by PMN (phagocytosis)” value in test [4] (3 and 10 μM) is “significant effects being observed at both 3 and 10 μM”. For the same molecule, in test [4] (human peripheral blood), the “phagocytic activity of polymorphonuclear leukocytes” value is reported as “reduction of phagocytic activity”. Also, in [5], the “synthesis of PGF2α” value is “inhibits the synthesis of PGF2α”.
